According to publication PMC8945599, “VEGFA, B, C: Implications of the C-Terminal Sequence Variations for the Interaction with Neuropilins” (Biomolecules, 2022):
pKd: −log10 of the molar value. Where no end group is shown, it is not given here.

Columns and labels:
[1] = biological target: T1, NRP1-b1 (b1 domain of Neuropilin-1) (Homo sapiens, UniProt O14786); assay: Surface plasmon resonance, peptide binding to immobilised NRP1-b1; conditions: SPR, Biacore T200, protein immobilised on CM5 chip (1000 RU), peptide 64 µM to 0.125 µM, 20 mM Tris pH 7.9, 50 mM NaCl
T1 construct: 6-His-tag with TEV protease cleavage site (N); made in house; host or cells: Rosetta-gami2(DE3)pLysS E. coli
T1 sequence (O14786 275-424 limits assumed): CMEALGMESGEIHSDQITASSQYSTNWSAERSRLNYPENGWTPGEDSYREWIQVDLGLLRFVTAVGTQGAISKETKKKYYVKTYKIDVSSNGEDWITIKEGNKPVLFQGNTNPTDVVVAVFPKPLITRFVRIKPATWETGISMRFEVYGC
Source text: (§1) Proteins were expressed and purified as previously described. NRP1-b1 and NRP2-b1 were expressed in Rosetta-gami2(DE3)pLysS E.coli cells that were transformed with a pET-15b vector containing NRP1-b1 and NRP2-b1 sequences with an N-terminal 6-His-tag and a TEV protease cleavage site. After the cells were harvested by centrifugation and lysed by sonication, the proteins were purified from the filtered cell extract. Purification protocol, as described in Tsai et al. (2016), included a combination of nickel ion-affinity chromatography, size exclusion, and a final ion exchange chromatography step.
(§2) SPR was performed using the Biacore T200 Enhanced Sensitivity model (GE, Healthcare, UK). Protein was immobilised on a CM5 chip, following the manufacturer’s instructions until it reached 1000 response units (RU). SPR was run with a range of peptide concentrations from 64 µM to 0.125 µM, in a buffer of 20 mM Tris pH 7.9, 50 mM NaCl. Biacore T200 evaluation software was used for data analysis.

NRP1-b1 = biological target: T2, NRP1-b1 (Homo sapiens, UniProt O14786); assay: Thermostability shift assay, NRP1-b1; assay type: binding; conditions: 5 µM protein, 1 mM ligand, 10X SYPRO Orange, LightCycler 480 II; average of four measurements
T2 construct: 6-His-tag with TEV protease cleavage site (N); made in house; host or cells: Rosetta-gami2(DE3)pLysS E. coli
T2 sequence (O14786 275-424 limits assumed): T1 sequence (O14786 275-424 limits assumed)
Description: Thermostability assays were performed on the LightCycler 480 II (Roche) with a final concentration of 5 µM protein, 1 mM ligand and 10X of SYPRO Orange, in DMSO (Thermo Fisher). Negative and positive control experiments were performed using the protein with buffer alone or the ligand without protein and the protein with a strongly binding ligand EG01377, respectively. Experiments were carried out in duplicates on two separate days for two different batches of protein preparations and the values in the table represent the averages from the four measurements.

[2] = biological target: T3, NRP2-b1 (b1 domain of Neuropilin-2) (Homo sapiens, UniProt O60462); assay: Surface plasmon resonance, peptide binding to immobilised NRP2-b1; conditions: SPR, Biacore T200, protein immobilised on CM5 chip (1000 RU), peptide 64 µM to 0.125 µM, 20 mM Tris pH 7.9, 50 mM NaCl
T3 construct: 6-His-tag with TEV protease cleavage site (N); made in house; host or cells: Rosetta-gami2(DE3)pLysS E. coli
T3 sequence (O60462 277-427 limits assumed): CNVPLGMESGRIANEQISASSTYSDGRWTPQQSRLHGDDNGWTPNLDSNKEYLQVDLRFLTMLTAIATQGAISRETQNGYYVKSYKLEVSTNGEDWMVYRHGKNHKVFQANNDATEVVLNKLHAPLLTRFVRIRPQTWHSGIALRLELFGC
Source text: as §1, §2

Row | Substance | pKd [1] | shift in Tm (ΔTm) of NRP1-b1 (NRP1-b1) [°C] | pKd [2]
1 | Ac-DKPRR [A165] | 5.10 | 3.5 ± 0.2 | 4.51
2 | Ac-RKLRR [B167] | 5.39 |  | 4.89
3 | Ac-RPQPR [B186] | 5.00 | 3.6 ± 0.2 | 4.61

Results, then the substance that gave them:

Row | pKd [1] | shift in Tm (ΔTm) of NRP1-b1 (NRP1-b1) [°C] | pKd [2] | Substance
4 | 4.48 | 3.0 ± 0.2 | 4.04 | Ac-AAAAR [Con, reference compound]
5 | 4.48 | 2.0 ± 0.3 | 4.57 | Ac-SIIRR [C]
